Results taken from patent US20250276994A1, “CAP ANALOG FOR THE 5'-END OF EUKARYOTIC MESSENGER RNAS” (WESTFÄLISCHE WILHELMS-UNIVERSITÄT, priority 2021, published 2025).
Blank lines part the entries; values can stand above or below the molecule they belong to.

Experiments:
T7 RNA polymerase = molecular target: T1, T7 RNA polymerase (Escherichia phage T7, UniProt P00573); assay: In vitro transcription of GLuc mRNA with cap analogs, gel analysis; type: biochemical
T1 construct: purchased Thermo Scientific
T1 sequence (P00573 whole entry): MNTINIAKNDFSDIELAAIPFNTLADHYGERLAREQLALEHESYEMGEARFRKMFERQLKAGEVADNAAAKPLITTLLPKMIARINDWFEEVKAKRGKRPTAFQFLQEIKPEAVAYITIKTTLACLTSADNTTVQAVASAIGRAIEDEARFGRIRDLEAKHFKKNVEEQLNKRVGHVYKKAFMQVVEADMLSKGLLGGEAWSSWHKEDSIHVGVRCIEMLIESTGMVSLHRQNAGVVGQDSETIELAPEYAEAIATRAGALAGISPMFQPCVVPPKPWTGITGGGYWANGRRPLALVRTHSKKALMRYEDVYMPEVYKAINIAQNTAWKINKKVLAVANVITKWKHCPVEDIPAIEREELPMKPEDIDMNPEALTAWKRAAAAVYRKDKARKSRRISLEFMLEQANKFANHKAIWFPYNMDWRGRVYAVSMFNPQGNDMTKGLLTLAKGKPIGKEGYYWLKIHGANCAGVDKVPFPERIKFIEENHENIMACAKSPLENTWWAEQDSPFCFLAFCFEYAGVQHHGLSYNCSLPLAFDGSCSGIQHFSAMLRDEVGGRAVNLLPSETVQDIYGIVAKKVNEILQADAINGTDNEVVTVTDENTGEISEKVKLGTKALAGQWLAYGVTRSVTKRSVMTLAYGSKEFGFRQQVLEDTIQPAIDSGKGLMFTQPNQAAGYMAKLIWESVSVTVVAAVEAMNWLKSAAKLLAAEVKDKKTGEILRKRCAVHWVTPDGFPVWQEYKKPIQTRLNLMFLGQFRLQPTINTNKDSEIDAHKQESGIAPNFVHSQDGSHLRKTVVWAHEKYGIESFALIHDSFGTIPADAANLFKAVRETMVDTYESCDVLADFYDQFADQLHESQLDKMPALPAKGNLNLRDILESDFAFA
Protocol: First, the DNA sequence coding for eGFP, Firefly luciferase (FLuc) or Gaussia luciferase (GLuc) mRNAs were amplified from pmRNA-vectors containing the respective sequence. After purification (NucleoSpin Gel and PCR Clean-up, Macherey-Nagel), the resulting linear dsDNA was used as template (200 ng) for in vitro T7 transcription performed in transcription buffer (40 mM Tris/HCl, 25 mM NaCl, 8 mM MgCl2, 2 mM spermidine(HCl)3) by adding either a A/C/UTP (0.5 mM) mix or a mix with modified nucleotides (A/m^5C/N^1-methylpseudo-UTP) (0.5 mM), GTP (0.25 mM), GpppG, m7GpppG, ApppG, DMNB or NPOM cap analog (1 mM), T7 RNA polymerase (50 U) (Thermo Scientific) and pyrophosphatase (0.1 U) (Thermo Scientific) for 4 h at 37° C. Remaining DNA template was digested in presence of 2 U DNase I for 1 h at 37° C. and then mRNAs were purified using the RNA Clean & Concentrator™-5 Kit (Zymo Research). To digest non-capped RNAs, 10 U of the RNA 5′-polyphosphatase (Epicentre) as well as the supplied reaction buffer were added to purified mRNAs. After an incubation period of 30 min at 37° C., 0.5 U of the 5′-3′ exoribonuclease XRN1 (NEB) and MgCl2 (5 mM) were added. The reaction mixture was incubated for 60 min at 37° C. Subsequently, capped mRNAs were purified using the RNA Clean & Concentrator™-5 Kit (Zymo Research).
The photocleavable 5′-cap analogs of formulas (12) and (18) were used for in vitro transcription of GLuc mRNA as described above and analysed via agarose gel electrophoresis.
“M” denotes Riboruler low range RNA ladder.

HeLa cells = assay: Translation and irradiation in HeLa cells of capped GLuc-mRNA (luminescence); type: cell-based
Protocol: HeLa cells were transferred to a 96 well plate 20 h prior transfection. 30.000 cells/well were cultivated in growth Media (MEM, 10% FCS, 1% glutamine, 1% Penicillin, 1% Streptomycine, […] non-essential aminoacids). For transfection the growth media was exchanged for MEM-media with 0.6 μL Metafectene® Pro (0.3 μL) and 100 ng mRNA was added per well. 6 h after transfection of the cells the media was exchange by MEM-media, followed by irradiation and another MEM-media exchange. After 24 h post transfection the supernatant in the wells was used for further luminescence measurements. Values of the ApppG capped mRNA represent cap independent translation and were therefore subtracted from the other values.
In cell translation and irradiation in cell culture of mammalian HeLa cells was performed as described above. GLuc mRNA capped with the photocleavable 5′-cap analog of formula (12) (“DMNB”) was used and the commercial non-modified cap analog denoted “m^7GpppG” (Jena Bioscience) was used as a control. HeLa cells were either transfected with the DMNB-m^7GpCH2ppG capped mRNA (irradiated and non-irradiated before transfection) or with the natural capped mRNA (irradiated and non-irradiated before transfection). Irradiation of the mRNA containing the natural cap was performed (5 V, 600 mA) with 365 nm for 30 seconds to evaluate the resulting influence on translational efficiency. DMNB-m^7GpCH2ppG capped mRNA was irradiated in the same way or with 405 nm for 60 seconds. The ApppG capped mRNA, which is not recognized by the translation initiation factor served as negative control, which is substracted from the other samples as it represents background activity. The values were normalized to the non-irradiated m^7GpppG capped sample (100%). The experiment was performed in triplicates.
The luminescence measurement of cell culture media after translation in cells transfected with modified and non-modified GLuc mRNA was repeated using irradiation with 365 nm/405 nm for different periods of time. HeLa cells were either transfected with the GLuc mRNA capped with the photocleavable 5′-cap analog of formula (12) denoted “DMNB-m^7GpCH2ppG capped mRNA” or with the natural m^7GpppG capped mRNA. Cells transfected with the natural capped mRNA were irradiated (5 V, 600 mA) with 365 nm/405 nm for 30 s or 60 s to evaluate the resulting influence on translational efficiency. Cells transfected with DMNB-m^7GpCH2ppG capped mRNA were irradiated in the same way. The ApppG capped mRNA, which is not recognized by the translation initiation factor served as negative control, which is substracted from the other samples as it represents background activity. The values were normalized to the non-irradiated cells with m^7GpppG capped mRNA (100%). The experiment was performed in triplicates.
Luminescence measurement of cell culture media after translation of transfected modified and non-modified GLuc mRNA in cells. HeLa cells were either transfected with the NPOM-m^7GpCH2ppG capped mRNA or with the natural m^7GpppG capped mRNA. Cells transfected with the natural capped mRNA were irradiated (5 V, 600 mA) with 365 nm/405 nm for different periods of time to evaluate the resulting influence on translational efficiency. Cells transfected with NPOM-m^7GpCH2ppG capped mRNA were irradiated in the same way. The ApppG capped mRNA, which is not recognized by the translation initiation factor served as negative control, which is substracted from the other samples as it represents background activity. […]

Reticulocyte Lysate = assay: In vitro translation of capped FLuc-mRNA and luminescence measurement; type: biochemical
Protocol: In vitro translation was performed using a eukaryotic cell free protein expression kit from Reticulocyte Lysate (Invitrogen). Experiments were performed in 12.5 μL total volume containing 20 ng of the corresponding FLuc-mRNAs, 50 μM L-methionine and 150 mM potassium acetate. Samples were mixed with 8.5 μL of the reticulocyte lysate and incubated for 90 min at 30° C. Afterwards, 2 μL of the respective translation mix were used in subsequent luminescence measurement. The translation efficiency of the reporter mRNAs was assessed in a luciferase assay using Beetle-juice Luciferase Assay Firefly (pjk). Luciferase activity was determined by adding 50 μL freshly prepared substrate solution to the translation mixture. Luminescence was monitored using a Tecan Infinite® m1000pro microplate reader with an acquisition time of 3 s (duration of signal acquisition).
The photocleavable 5′-cap analog of formula (7) was used for in vitro transcription to make FLuc mRNA as described above. This was used for in vitro translation and Luminescence measurement as described above. The commercial non-modified cap analog denoted “m^7GpppG” (Jena Bioscience) was used as positive control. Samples were irradiated for 30 seconds. The ApppG capped mRNA, which is not recognized by the translation initiation factor served as negative control, which is substracted from the other samples as it represents background activity. The experiment was performed in quadruplicates. The FLuc-mRNA capped with the photocleavable 5′-cap analog of formula (7) is denoted “ONB”.
The in vitro translation assay and luminescence measurement was performed as described above using the photocleavable 5′-cap analog of formula (12). The capped mRNA was denoted “DMNB-m^7GpCH2ppG capped FLuc-mRNA”. Samples were irradiated for 30 seconds (365 nm) or 60 seconds (405 nm). The commercial non-modified cap analog denoted “m^7GpppG” (Jena Bioscience) was used as positive control and all other samples were normalized to it. The ApppG capped mRNA, which is not recognized by the translation initiation factor served as negative control, which is substracted from the other samples as it represents background activity. The experiment was performed in triplicates, except *DMNB-m7GpCH2ppG (365 nm) which was a single determination.
The in vitro translation assay in reticulocyte lysate and luminescence measurement was performed as described above using m^7GpppG capped FLuc-mRNA caged with the photocleavable 5′-cap analog of formulas (22) and (25) (denoted “DMNB m^7GpppG” and “NPOM m^7GpppG”). Samples were irradiated for 30 seconds at 365 nm. The ApppG capped mRNA, which is not recognized by the translation initiation factor served as negative control, which was substracted from the other samples as it represents background activity. The values were normalized to the non-irradiated sample with m^7GpppG capped mRNA (100%). The experiment was performed in triplicates.
The in vitro translation assay in reticulocyte lysate and luminescence measurement was performed as described above using m^7GpppG capped FLuc-mRNA with modified nucleotides m^5C and N^1methyl-pseudouridine caged with the photocleavable 5′-cap analog of formulas (22) and (25) (denoted “DMNB m^7GpppG mod” and “NPOM m^7GpppG mod”). Samples were irradiated for 30 seconds at 365 nm. The ApppG capped mRNA, which is not recognized by the translation initiation factor served as negative control, which was substracted from the other samples as it represents background activity. The values were normalized to the non-irradiated sample with m^7GpppG capped mRNA (100%). The experiment was performed in triplicates.

[1] = Irradiation of caged nucleosides, conversion estimated by HPLC; type: physicochemical; conditions: 450 nm; H2O:ACN (1:1)
Protocol: Conversions from caged compounds to uncaged compounds were estimated by integrating the peaks of a UV-spectrum that resulted from the HPLC analysis (Agilent infinity 1260).
When irradiating isolated N2-modified compounds, a final volume of 10 μL in double distilled water was irradiated using a LED (λmax=365 nm/405 nm/420 nm) and then analyzed by RP-HPLC.
A 500 μM solution of the compound 15, nitropiperonylmethyl fused via a carbamate moiety to guanosine (denoted “NPOM guanosine” or “caged guanosine”), in water/acetone/acetonitrile was irradiated in a 10 μL volume with either 405 nm for 20 s, 40 s or 60 s or with 365 nm for 5 s, 10 s or 20 s, respectively, using a LED power (input 3W and output 147 mW/cm^2). HPLC analysis was performed as described above.
Samples of the adenosine fused via a carbamate moiety to 7-(diethylamino)-4-(hydroxymethyl)-coumarin (DEACM) were irradiated with 450 nm. […] The peak at 21.1 min corresponds to the obtained compound and the peaks at 11.1 and 21.9 min correspond to the photo-cleavage products adenosine and DEACM-OH, respectively.

Compound: Cn1c[n+]([C@@H]2O[C@H](COP(=O)(O)OP(=O)([O-])OP(=O)(O)OC[C@H]3O[C@@H](n4cnc5c(=O)[nH]c(N)nc54)[C@H](O)[C@@H]3O)[C@@H](O)[C@H]2O)c2nc(N)[nH]c(=O)c21 [m^7GpppG, reference compound]
incorporation of cap analog into RNA (T7 RNA polymerase): incorporated into the RNA

Compound: CC(OC(=O)Nc1nc2c(c(=O)[nH]1)[n+](C)cn2[C@@H]1O[C@H](COP(=O)(O)CP(=O)(O)OP(=O)(O)OC[C@H]2O[C@@H](n3cnc4c(=O)[nH]c(N)nc43)C(O)C2O)C(O)C1O)c1cc2c(cc1[N+](=O)[O-])OCO2 (stereo partly drawn) [compound 18, P1-(N^2-(1-(6-nitrobenzo[d][1,3]dioxol-5-yl)ethyl)oxycarbonyl-7-methylguanosin-5′-yl)-P3-guanosin-5′-yl 1,2-methylenetriphosphate]
incorporation of cap analog into RNA (T7 RNA polymerase): incorporated into the RNA
translation in cells (luminescence) after irradiation of the cells (HeLa cells; GLuc mRNA, transfected cells irradiated 15 s, 25 s or 30 s, increase at 365 nm): significant increase of translation

Compound: CC(OC(=O)Nc1nc2c(c(=O)[nH]1)[n+](C)cn2[C@@H]1O[C@H](COP(=O)(O)OP(=O)(O)OP(=O)(O)OC[C@H]2O[C@@H](n3cnc4c(=O)[nH]c(N)nc43)C(O)C2O)C(O)C1O)c1cc2c(cc1[N+](=O)[O-])OCO2 (stereo partly drawn) [compound 25, P1-(N^2-(1-(6-nitrobenzo[d][1,3]dioxol-5-yl)ethyl)oxycarbonyl-7-methylguanosin-5′-yl)-P3-guanosin-5′-yl triphosphate]
in vitro translation (luminescence) after irradiation (Reticulocyte Lysate; capped FLuc-mRNA with modified nucleotides m^5C and N^1methyl-pseudouridine, 30 seconds at 365 nm): marked increase of translation
in vitro translation (luminescence) after irradiation (Reticulocyte Lysate; capped FLuc-mRNA, regular nucleotides, 30 seconds at 365 nm): marked increase of translation

Compound: C[n+]1cn([C@@H]2O[C@H](COP(=O)(O)CP(=O)(O)OP(=O)(O)OC[C@H]3O[C@@H](n4cnc5c(=O)[nH]c(N)nc54)C(O)C3O)C(O)C2O)c2nc(NC(=O)OCc3ccccc3[N+](=O)[O-])[nH]c(=O)c21 (stereo partly drawn) [compound 7, P1-(N^2-(2-Nitrobenzyl)oxycarbonyl-7-methylguanosin-5′-yl)-P3-guanosin-5′-yl 1,2-methylenetriphosphate]
in vitro translation (luminescence) after irradiation (Reticulocyte Lysate; capped FLuc-mRNA, irradiated for 30 seconds): partially restored
in vitro translation (luminescence), non-irradiated (Reticulocyte Lysate; capped FLuc-mRNA, non-irradiated, normalized to m^7GpppG capped mRNA): successfully inhibited to a high degree
translation efficiency (luminescence of cell supernatant) (HeLa cells; differently capped GLuc mRNAs, normalized to m^7GpppG, single determination): impacts the translation efficiency in an inhibiting way

photo-cleavage upon irradiation (HPLC) [1]: photocleavable
Compound: CCN(CC)c1ccc2c(COC(=O)Nc3ncnc4c3ncn4[C@@H]3O[C@H](CO)[C@H](O)C3O)cc(=O)oc2c1 (stereo partly drawn)
